{"source": "patent US20240398818A1", "about": "“Cardiosafe Antidiabetic Therapy” (priority 2018, published 2024)", "key": {"patients with T2D": {"tested_on": "patients with T2D", "settings": "compared to placebo; cited from earlier work"}, "[1]": {"tested_on": "adult patients with early type 2 diabetes mellitus and increased CV risk or established complications", "assay": "Cardiovascular Safety Trial (linagliptin versus glimepiride)", "format": "in vivo", "procedure": "The effect of linagliptin on cardiovascular risk in adult patients with early type 2 diabetes mellitus and increased CV risk or established complications was evaluated in this Cardiovascular Safety Trial, a multi-center, multi-national, randomized, double-blind parallel group trial. The trial compared the risk of experiencing a major adverse cardiovascular event (MACE) between linagliptin and glimepiride when these were added to standard of care (including background therapy with metformin) based on regional standards for HbA1c and CV risk factors. The trial was event driven and patients were followed until at least 631 primary outcome events accrued.\nA total of 6033 patients were treated (linagliptin 5 mg=3023; glimepiride 1 mg to 4 mg=3010) and followed for a median of 6.25 years (median time on treatment 5.9 years). Approximately 73% of the study population was Caucasian, 18% was Asian, and 5% was Black. The mean age was 64 years and 60% were male.\nAt baseline, disease characteristics were balanced. […] The trial population included 2030 (34%) patients ≥70 years of age, 2089 (35%) patients with cardiovascular disease, and 1130 (19%) patients with renal impairment with an eGFR <60 mL/min/1.73 m2 at baseline. Overall, the previous use of diabetes medications was balanced across treatment groups (metformin 83% continued as background therapy, sulfonylurea 28% discontinued prior to randomization), patients on insulin were excluded. The use of medications to reduce cardiovascular risk was also balanced (aspirin 47%, statins 65%, ACE inhibitors or ARBs 74%, beta blockers 39%, and calcium channel blockers 30%).\nThe primary endpoint in this Cardiovascular Safety Trial was the time to first occurrence of three point (3P) MACE. A major adverse cardiac event was defined as a cardiovascular death or a nonfatal myocardial infarction (MI) or a nonfatal stroke. The statistical analysis plan tested for non-inferiority for the occurrence of 3P MACE. The key secondary endpoint evaluated the composite of treatment sustainability defined as the proportion of patients on study treatment, that maintain glycemic control (HbA1c≤7.0%) without need for additional antidiabetic drug therapy (rescue medication), without any moderate (symptomatic with glucose value <70 mg/dL) or severe (requiring assistance) hypoglycemic episodes, and without >2% weight gain from baseline.\nCardiovascular Outcome Trial of Linagliptin Versus Glimepriride in Type 2 Diabetes—assessing long-term cardiovascular impact of linagliptin versus the sulphonylurea glimepiride in subjects with early type 2 diabetes and increased cardiovascular risk or established complications. […]\nType 2 diabetes patient with insufficient glycemic control (naïve or currently treated (mono or dual therapy) with e.g. metformin and/or an alpha-glucosidase inhibitor (e.g. having HbA1c 6.5-8.5%), or currently treated (mono or dual therapy) with e.g. a sulphonylurea or glinide, with or without metformin or an alpha-glucosidase inhibitor (e.g. having HbA1c 6.5-7.5%)) and increased or high risk of cardiovascular events, e.g. defined as one or more of risk factors A), B), C) and D) indicated below, are randomized* and treated over a lengthy period (e.g. up to 432 weeks) with linagliptin (5 mg, q.d., optionally in combination with one or more other active substances, e.g. such as added to existing antidiabetic background) and compared with patients treated with the sulphonylurea glimepiride (1-4 mg once daily). * Upon randomization, if a patient is on a SU or glinide, this secretagogue therapy is discontinued and replaced with study medication. For patients not on a secretagogue, study medication is added to the existing regimen.\nTime to first occurrence of any of the following adjudicated components of the primary composite endpoint: […]"}, "[2]": {"settings": "baseline to Final Visit, all observed cases"}, "[3]": {"settings": "baseline to Final Visit, observed cases including values after rescue medication"}, "[4]": {"settings": "both, human, in vivo, 5.9 years"}, "[5]": {"settings": "both, human, in vivo, 6.25 years"}, "[6]": {"settings": "component of secondary composite"}, "[7]": {"settings": "from end of titration (16 weeks) to final visit"}, "[8]": {"settings": "median follow-up 6.25 years, listed as glimepiride"}}}
{"smiles": "Cn1c(=O)cc(N2CCC[C@@H](N)C2)n(Cc2ccccc2C#N)c1=O", "note": "[alogliptin]", "values": [{"measurement": "effect on major adverse CV event (MACE) outcomes (in words)", "setting": "patients with T2D", "value": "neutral effect"}]}
{"smiles": "N[C@@H](CC(=O)N1CCn2c(nnc2C(F)(F)F)C1)Cc1cc(F)c(F)cc1F", "note": "[sitagliptin]", "values": [{"measurement": "effect on major adverse CV event (MACE) outcomes (in words)", "setting": "patients with T2D", "value": "neutral effect"}]}
{"smiles": "CCC1=C(C)CN(C(=O)NCCc2ccc(S(=O)(=O)NC(=O)N[C@H]3CC[C@H](C)CC3)cc2)C1=O", "note": "[Glimepiride]", "values": [{"measurement": "patients with macroalbuminuria (>300 mg/g)", "setting": "[1]; at Final Visit", "value": 1.4, "unit": "%"}, {"measurement": "patients with microalbuminuria (≥30 to ≤300 mg/g)", "setting": "[1]; at Final Visit", "value": 16.0, "unit": "%"}, {"measurement": "patients with normal UACR (<30 mg/g)", "setting": "[1]; at baseline and at Final Visit", "value": 57.7, "unit": "%"}, {"measurement": "FPG, Change from baseline, adjusted mean", "setting": "[1]; [2]", "value": 19.7, "unit": "mg/dL"}, {"measurement": "HBA1c, Change from baseline, adjusted mean", "setting": "[1]; [2]", "value": 0.15, "unit": "%"}, {"measurement": "Creatinine, Change from baseline, adjusted mean", "setting": "[1]; [3]", "value": 0.09, "unit": "mg/dL"}, {"measurement": "HDL, Change from baseline, adjusted mean", "setting": "[1]; [3]", "value": 0.3, "unit": "mg/dL"}, {"measurement": "LDL, Change from baseline, adjusted mean", "setting": "[1]; [3]", "value": -6.5, "unit": "mg/dL"}, {"measurement": "Total cholesterol, Change from baseline, adjusted mean", "setting": "[1]; [3]", "value": -5.0, "unit": "mg/dL"}, {"measurement": "Triglyceride, Change from baseline, adjusted mean", "setting": "[1]; [3]", "value": 5.2, "unit": "mg/dL"}, {"measurement": "Urinary albumin, Change from baseline, adjusted mean", "setting": "[1]; [3]", "value": 45.2, "unit": "mg/dL"}, {"measurement": "third key secondary endpoint of treatment sustainability (on medication, HbA1c≤7.0%, no rescue, no >2% weight gain), responders", "setting": "[1]; between Visit 6 and Final Visit", "value": 14.1, "unit": "%"}, {"measurement": "Hospitalization for heart failure (HHF), Incidence Rate per 1000 PY", "setting": "[1]; both, human, in vivo", "value": 5.3, "unit": "per 1000 PY"}, {"measurement": "Hospitalization for heart failure (HHF), Number of Subjects", "setting": "[1]; both, human, in vivo", "value": 92}, {"measurement": "Patients with any moderate/severe hypoglycemic episodes, Number of Subjects", "setting": "[1]; both, human, in vivo", "value": 791}, {"measurement": "Patients with any moderate/severe hypoglycemic episodes, Subjects (%)", "setting": "[1]; both, human, in vivo", "value": 27.5, "unit": "%"}, {"measurement": "Secondary CV composite (4P-MACE), Incidence Rate per 1000 PY", "setting": "[1]; both, human, in vivo", "value": 23.7, "unit": "per 1000 PY"}, {"measurement": "rate of moderate or severe hypoglycemia", "setting": "[1]; [4]", "value": 30.9, "unit": "%"}, {"measurement": "severe hypoglycemia (requiring assistance)", "setting": "[1]; [4]", "value": 2.2, "unit": "%"}, {"measurement": "Hospitalization for heart failure (HHF), Subjects (%)", "setting": "[1]; [5]", "value": 3.1, "unit": "%"}, {"measurement": "Premature discontinuation from trial medication due to adverse events", "setting": "[1]; [5]", "value": 17.4, "unit": "%"}, {"measurement": "Primary CV composite (3P-MACE), Incidence Rate per 1000 PY", "setting": "[1]; [5]", "value": 21.2, "unit": "per 1000 PY"}, {"measurement": "all-cause mortality, incidence rate per 1000 years at risk", "setting": "[1]; [5]", "value": 18.4, "unit": "per 1000 years at risk"}, {"measurement": "any adjudicated event (secondary CV endpoint), % of patients", "setting": "[1]; [5]", "value": 17.8, "unit": "%"}, {"measurement": "hospitalisation for heart failure combined with CV death, incidence rate per 1000 years at risk", "setting": "[1]; [5]", "value": 13.4, "unit": "per 1000 years at risk"}, {"measurement": "hospitalisation for heart failure, incidence rate per 1000 years at risk", "setting": "[1]; [5]", "value": 5.3, "unit": "per 1000 years at risk"}, {"measurement": "investigator-reported heart failure AEs, % of patients", "setting": "[1]; [5]", "value": 5.2, "unit": "%"}, {"measurement": "investigator-reported heart failure AEs, incidence rate per 1000 years at risk", "setting": "[1]; [5]", "value": 9.0, "unit": "per 1000 years at risk"}, {"measurement": "non-CV death, % of patients", "setting": "[1]; [5]", "value": 5.6, "unit": "%"}, {"measurement": "non-CV death, incidence rate per 1000 years at risk", "setting": "[1]; [5]", "value": 9.2, "unit": "per 1000 years at risk"}, {"measurement": "proportion of patients with CV death contributing to the 3P-MACE", "setting": "[1]; [5]", "value": 4.2, "unit": "%"}, {"measurement": "proportion of patients with CV death contributing to the 4P-MACE", "setting": "[1]; [5]", "value": 4.1, "unit": "%"}, {"measurement": "proportion of patients with hospitalisation for unstable angina pectoris contributing to the 4P-MACE", "setting": "[1]; [5]", "value": 1.8, "unit": "%"}, {"measurement": "proportion of patients with non-fatal MI contributing to the 3P-MACE", "setting": "[1]; [5]", "value": 4.6, "unit": "%"}, {"measurement": "proportion of patients with non-fatal MI contributing to the 4P-MACE", "setting": "[1]; [5]", "value": 4.3, "unit": "%"}, {"measurement": "proportion of patients with non-fatal stroke contributing to the 3P-MACE", "setting": "[1]; [5]", "value": 3.4, "unit": "%"}, {"measurement": "proportion of patients with non-fatal stroke contributing to the 4P-MACE", "setting": "[1]; [5]", "value": 3.3, "unit": "%"}, {"measurement": "Patients with maintained glycemic control (HbA1c ≤7.0%), Number of Subjects", "setting": "[1]; [6]", "value": 554}, {"measurement": "Patients with maintained glycemic control (HbA1c ≤7.0%), Subjects (%)", "setting": "[1]; [6]", "value": 18.5, "unit": "%"}, {"measurement": "Patients with ≤2% weight gain, Number of Subjects", "setting": "[1]; [6]", "value": 699}, {"measurement": "Patients with ≤2% weight gain, Subjects (%)", "setting": "[1]; [6]", "value": 23.3, "unit": "%"}, {"measurement": "Secondary composite of treatment sustainability (on treatment, HbA1c ≤7.0%, no rescue, no moderate/severe hypoglycemic episodes, no >2% weight gain), Number of Subjects", "setting": "[1]; [7]", "value": 305}, {"measurement": "Secondary composite of treatment sustainability (second key secondary endpoint), Subjects (%)", "setting": "[1]; [7]", "value": 10.2, "unit": "%"}, {"measurement": "first intake of rescue medication, incidence rate per 1000 years at risk", "setting": "[1]; in vivo", "value": 115.5, "unit": "per 1000 years at risk"}, {"measurement": "rate of patients who used rescue medication", "setting": "[1]; in vivo", "value": 47.1, "unit": "%"}, {"measurement": "All-cause mortality, Incidence Rate per 1000 PY", "setting": "[1]; median follow-up 6.25 years", "value": 18.4, "unit": "per 1000 PY"}, {"measurement": "All-cause mortality, Number of Subjects", "setting": "[1]; median follow-up 6.25 years", "value": 336}, {"measurement": "All-cause mortality, Subjects (%)", "setting": "[1]; median follow-up 6.25 years", "value": "(11.2) %"}, {"measurement": "HHF or CV death, Incidence Rate per 1000 PY", "setting": "[1]; median follow-up 6.25 years", "value": 13.4, "unit": "per 1000 PY"}, {"measurement": "HHF or CV death, Number of Subjects", "setting": "[1]; median follow-up 6.25 years", "value": 234}, {"measurement": "HHF or CV death, Subjects (%)", "setting": "[1]; median follow-up 6.25 years", "value": "(7.8) %"}, {"measurement": "Secondary CV composite (cardiovascular death, non-fatal MI, non-fatal stroke and hospitalization for unstable angina; 4P-MACE), Number of Subjects", "setting": "[1]; median follow-up 6.25 years", "value": 401}, {"measurement": "Primary CV composite (cardiovascular death, non-fatal MI, non-fatal stroke; 3P-MACE), Number of Subjects", "setting": "[1]; median follow-up 6.25 years, added to standard of care", "value": 362}, {"measurement": "All-cause mortality, Subjects (%)", "setting": "[1]; [8]", "value": 12.3, "unit": "%"}, {"measurement": "HHF or CV death, Subjects (%)", "setting": "[1]; [8]", "value": 7.8, "unit": "%"}, {"measurement": "weight change (in words)", "setting": "[1]; over time", "value": "initial numerical weight increase"}]}
{"smiles": "N#C[C@@H]1C[C@@H]2C[C@@H]2N1C(=O)[C@@H](N)C12CC3CC(CC(O)(C3)C1)C2", "note": "[saxagliptin]", "values": [{"measurement": "effect on major adverse CV event (MACE) outcomes (in words)", "setting": "patients with T2D", "value": "neutral effect"}]}
